Experimental data as given in the kinase profiling compilation of Christmann-Franck et al. (2016).

What was measured:
Experiment in all cases: KINOMEscan competition binding
Conditions in all cases: compound 10.0 µM
ACVR2B (human) = ACVR2B (human) (UniProt Q13705)
ALK (human) = ALK (human) (UniProt Q9UM73)
BMPR2 (human) = BMPR2 (human) (UniProt Q13873)
CDK3 (human) = CDK3 (human) (UniProt Q00526)
CLK1 (human) = CLK1 (human) (UniProt P49759)
CSNK1A1L (human) = CSNK1A1L (human) (UniProt Q8N752)
DAPK2 (human) = DAPK2 (human) (UniProt Q9UIK4)
DCLK3 (human) = DCLK3 (human) (UniProt Q9C098)
EPHA8 (human) = EPHA8 (human) (UniProt P29322)
EPHB2 (human) = EPHB2 (human) (UniProt P29323)
FGFR3 (human) = FGFR3 (human) (UniProt P22607)
MAP3K12 (human) = MAP3K12 (human) (UniProt Q12852)
MAP4K5 (human) = MAP4K5 (human) (UniProt Q9Y4K4)
MAPK10 (human) = MAPK10 (human) (UniProt P53779)
MAPK12 (human) = MAPK12 (human) (UniProt P53778)
MST4 (human) = MST4 (human) (UniProt Q9P289)
NEK9 (human) = NEK9 (human) (UniProt Q8TD19)
PAK4 (human) = PAK4 (human) (UniProt O96013)
PIP4K2B (human) = PIP4K2B (human) (UniProt P78356)
PIP5K1A (human) = PIP5K1A (human) (UniProt Q99755)
PLK3 (human) = PLK3 (human) (UniProt Q9H4B4)
PRKAA1 (human) = PRKAA1 (human) (UniProt Q13131)
PRKD1 (human) = PRKD1 (human) (UniProt Q15139)
PRKD2 (human) = PRKD2 (human) (UniProt Q9BZL6)
RIPK2 (human) = RIPK2 (human) (UniProt O43353)
RPS6KA3 KD1 (human) = RPS6KA3 KD1 (human) (UniProt P51812)
STK16 (human) = STK16 (human) (UniProt O75716)
TESK1 (human) = TESK1 (human) (UniProt Q15569)
[1] = biological target: TYK2 JH1 catalytic (human) (UniProt P29597)
SGK110 (human) = SGK110 (human) (UniProt P0C264)
Sequence of SGK110 (human) (P0C264 whole entry, looked up): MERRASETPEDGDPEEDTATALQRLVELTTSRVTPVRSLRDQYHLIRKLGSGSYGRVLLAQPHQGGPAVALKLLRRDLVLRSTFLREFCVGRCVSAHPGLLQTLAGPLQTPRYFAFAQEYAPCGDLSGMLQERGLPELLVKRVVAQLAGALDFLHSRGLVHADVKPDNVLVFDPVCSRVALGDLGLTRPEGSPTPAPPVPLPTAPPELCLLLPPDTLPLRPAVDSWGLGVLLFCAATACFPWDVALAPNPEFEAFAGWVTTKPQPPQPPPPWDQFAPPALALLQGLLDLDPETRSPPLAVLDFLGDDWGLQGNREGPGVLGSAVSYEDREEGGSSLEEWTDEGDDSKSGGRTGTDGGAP

Sequence of NEK9 (human) (Q8TD19 whole entry, looked up): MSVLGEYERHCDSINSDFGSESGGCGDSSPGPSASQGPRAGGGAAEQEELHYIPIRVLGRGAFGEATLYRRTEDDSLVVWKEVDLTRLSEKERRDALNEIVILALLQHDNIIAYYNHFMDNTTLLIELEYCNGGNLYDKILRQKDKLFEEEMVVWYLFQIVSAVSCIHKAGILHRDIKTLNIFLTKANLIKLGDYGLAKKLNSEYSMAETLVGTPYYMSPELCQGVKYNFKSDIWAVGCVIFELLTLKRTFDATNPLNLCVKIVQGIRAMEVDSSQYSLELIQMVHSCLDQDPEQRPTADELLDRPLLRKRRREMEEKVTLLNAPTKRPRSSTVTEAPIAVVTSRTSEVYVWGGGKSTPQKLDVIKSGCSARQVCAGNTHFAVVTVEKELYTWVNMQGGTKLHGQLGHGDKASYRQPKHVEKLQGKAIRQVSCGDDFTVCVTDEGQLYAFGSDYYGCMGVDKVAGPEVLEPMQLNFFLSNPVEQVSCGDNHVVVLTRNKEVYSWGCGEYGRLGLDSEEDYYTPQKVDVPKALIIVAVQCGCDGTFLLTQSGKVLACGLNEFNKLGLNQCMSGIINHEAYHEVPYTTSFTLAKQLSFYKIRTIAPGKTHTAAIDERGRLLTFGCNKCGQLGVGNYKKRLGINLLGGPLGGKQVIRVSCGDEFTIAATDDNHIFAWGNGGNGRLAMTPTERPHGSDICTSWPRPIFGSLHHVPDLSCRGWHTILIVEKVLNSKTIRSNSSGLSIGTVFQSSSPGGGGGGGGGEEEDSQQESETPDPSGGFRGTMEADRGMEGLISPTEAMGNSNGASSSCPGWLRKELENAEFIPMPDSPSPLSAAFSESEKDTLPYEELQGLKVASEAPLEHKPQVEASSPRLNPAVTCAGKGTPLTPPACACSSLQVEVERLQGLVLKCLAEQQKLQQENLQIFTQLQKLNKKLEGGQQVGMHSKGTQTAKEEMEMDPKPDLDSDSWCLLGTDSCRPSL
Sequence of PIP4K2B (human) (P78356 whole entry, looked up): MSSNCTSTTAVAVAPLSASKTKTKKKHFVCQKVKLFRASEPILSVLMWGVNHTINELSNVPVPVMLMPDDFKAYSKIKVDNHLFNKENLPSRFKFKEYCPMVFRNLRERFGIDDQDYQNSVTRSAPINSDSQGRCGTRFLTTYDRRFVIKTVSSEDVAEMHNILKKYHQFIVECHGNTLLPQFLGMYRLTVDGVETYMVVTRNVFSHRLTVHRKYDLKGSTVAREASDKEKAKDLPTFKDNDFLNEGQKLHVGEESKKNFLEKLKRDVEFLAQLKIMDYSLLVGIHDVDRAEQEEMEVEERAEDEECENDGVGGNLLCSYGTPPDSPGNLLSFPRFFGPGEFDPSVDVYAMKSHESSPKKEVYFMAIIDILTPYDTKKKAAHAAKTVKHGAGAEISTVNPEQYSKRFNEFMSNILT
Sequence of PLK3 (human) (Q9H4B4 whole entry, looked up): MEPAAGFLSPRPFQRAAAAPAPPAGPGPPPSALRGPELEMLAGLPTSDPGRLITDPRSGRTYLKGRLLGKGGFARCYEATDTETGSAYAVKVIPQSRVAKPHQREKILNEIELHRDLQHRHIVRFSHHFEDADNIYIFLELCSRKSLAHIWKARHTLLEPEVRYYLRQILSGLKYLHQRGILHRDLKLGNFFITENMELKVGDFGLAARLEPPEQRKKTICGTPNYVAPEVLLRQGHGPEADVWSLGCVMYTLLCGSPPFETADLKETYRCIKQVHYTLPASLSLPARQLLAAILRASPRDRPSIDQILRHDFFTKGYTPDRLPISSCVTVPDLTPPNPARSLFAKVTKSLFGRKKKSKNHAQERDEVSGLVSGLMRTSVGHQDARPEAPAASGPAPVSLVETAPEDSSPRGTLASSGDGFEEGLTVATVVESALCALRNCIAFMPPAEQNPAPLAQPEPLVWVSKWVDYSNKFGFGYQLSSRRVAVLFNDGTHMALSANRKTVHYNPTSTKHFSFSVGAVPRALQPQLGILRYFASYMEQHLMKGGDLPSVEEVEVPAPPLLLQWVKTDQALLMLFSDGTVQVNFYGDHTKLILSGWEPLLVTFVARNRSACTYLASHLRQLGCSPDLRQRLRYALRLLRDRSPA
Sequence of MAPK12 (human) (P53778 whole entry, looked up): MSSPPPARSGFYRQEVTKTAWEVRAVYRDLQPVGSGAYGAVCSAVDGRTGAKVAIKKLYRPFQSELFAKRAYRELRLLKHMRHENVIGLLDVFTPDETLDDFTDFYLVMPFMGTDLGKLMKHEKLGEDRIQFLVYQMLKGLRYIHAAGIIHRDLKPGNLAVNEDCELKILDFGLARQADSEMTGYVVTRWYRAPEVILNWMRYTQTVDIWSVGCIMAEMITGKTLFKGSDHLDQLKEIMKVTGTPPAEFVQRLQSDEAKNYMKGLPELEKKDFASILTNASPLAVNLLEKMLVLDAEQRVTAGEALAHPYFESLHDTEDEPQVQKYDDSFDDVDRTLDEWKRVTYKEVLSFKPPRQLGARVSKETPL
Sequence of PIP5K1A (human) (Q99755 whole entry, looked up): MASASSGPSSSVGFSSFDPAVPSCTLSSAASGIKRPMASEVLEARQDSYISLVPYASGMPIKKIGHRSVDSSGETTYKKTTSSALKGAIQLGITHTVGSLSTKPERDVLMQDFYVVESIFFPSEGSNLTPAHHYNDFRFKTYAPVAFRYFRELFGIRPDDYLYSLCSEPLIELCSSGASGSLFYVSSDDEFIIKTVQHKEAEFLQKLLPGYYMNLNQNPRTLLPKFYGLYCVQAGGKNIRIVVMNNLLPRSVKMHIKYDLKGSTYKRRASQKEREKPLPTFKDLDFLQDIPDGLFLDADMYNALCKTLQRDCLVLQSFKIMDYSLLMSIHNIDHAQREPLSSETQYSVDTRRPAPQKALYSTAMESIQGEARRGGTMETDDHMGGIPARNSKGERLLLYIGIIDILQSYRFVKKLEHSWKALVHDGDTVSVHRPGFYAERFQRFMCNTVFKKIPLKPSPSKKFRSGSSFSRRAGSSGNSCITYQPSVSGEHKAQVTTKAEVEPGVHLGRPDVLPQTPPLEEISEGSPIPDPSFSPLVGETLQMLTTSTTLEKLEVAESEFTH
Sequence of PRKAA1 (human) (Q13131 whole entry, looked up): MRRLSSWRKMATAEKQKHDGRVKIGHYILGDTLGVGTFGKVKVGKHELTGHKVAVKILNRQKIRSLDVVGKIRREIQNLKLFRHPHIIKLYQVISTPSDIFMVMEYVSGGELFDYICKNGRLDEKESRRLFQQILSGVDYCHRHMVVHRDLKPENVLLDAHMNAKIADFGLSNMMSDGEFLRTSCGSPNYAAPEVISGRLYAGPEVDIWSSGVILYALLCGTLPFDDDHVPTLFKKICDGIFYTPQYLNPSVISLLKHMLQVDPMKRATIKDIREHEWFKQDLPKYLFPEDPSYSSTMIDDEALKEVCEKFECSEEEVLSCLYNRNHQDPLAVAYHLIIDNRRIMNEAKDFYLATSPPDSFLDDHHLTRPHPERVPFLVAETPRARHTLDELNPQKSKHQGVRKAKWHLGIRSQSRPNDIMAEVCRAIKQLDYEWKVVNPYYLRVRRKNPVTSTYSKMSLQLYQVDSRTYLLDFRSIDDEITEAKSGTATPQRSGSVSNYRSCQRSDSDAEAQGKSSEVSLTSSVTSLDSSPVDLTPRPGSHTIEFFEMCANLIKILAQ
Sequence of EPHB2 (human) (P29323 whole entry, looked up): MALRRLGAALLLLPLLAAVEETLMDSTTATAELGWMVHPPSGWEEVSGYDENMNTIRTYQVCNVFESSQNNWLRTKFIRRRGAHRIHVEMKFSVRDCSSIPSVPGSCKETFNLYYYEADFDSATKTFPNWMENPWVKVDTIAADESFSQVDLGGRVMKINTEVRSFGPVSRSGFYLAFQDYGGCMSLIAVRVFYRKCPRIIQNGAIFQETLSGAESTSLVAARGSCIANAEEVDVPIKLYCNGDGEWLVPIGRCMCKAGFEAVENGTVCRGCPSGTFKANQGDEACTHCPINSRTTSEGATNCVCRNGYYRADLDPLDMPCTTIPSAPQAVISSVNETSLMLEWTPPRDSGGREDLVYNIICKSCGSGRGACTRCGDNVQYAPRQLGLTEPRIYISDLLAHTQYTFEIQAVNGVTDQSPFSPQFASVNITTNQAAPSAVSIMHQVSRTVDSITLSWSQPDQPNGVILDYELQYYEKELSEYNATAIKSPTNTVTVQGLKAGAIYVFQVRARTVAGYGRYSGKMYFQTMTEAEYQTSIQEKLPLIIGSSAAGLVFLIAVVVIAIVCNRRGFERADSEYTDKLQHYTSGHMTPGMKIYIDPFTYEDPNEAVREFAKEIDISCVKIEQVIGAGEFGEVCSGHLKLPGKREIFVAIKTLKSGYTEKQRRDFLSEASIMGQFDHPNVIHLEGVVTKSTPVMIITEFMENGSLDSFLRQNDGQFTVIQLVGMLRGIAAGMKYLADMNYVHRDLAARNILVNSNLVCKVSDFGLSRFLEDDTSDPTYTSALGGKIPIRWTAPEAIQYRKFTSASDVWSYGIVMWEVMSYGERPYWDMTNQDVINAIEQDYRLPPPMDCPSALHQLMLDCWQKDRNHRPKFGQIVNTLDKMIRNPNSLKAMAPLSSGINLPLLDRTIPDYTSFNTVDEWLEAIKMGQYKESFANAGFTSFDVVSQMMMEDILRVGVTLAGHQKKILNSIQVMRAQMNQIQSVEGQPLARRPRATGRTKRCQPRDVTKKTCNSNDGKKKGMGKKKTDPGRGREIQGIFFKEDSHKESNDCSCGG

| Structure (SMILES) | kinase still bound, per cent of control (ACVR2B (human)) [%] | kinase still bound, per cent of control (ALK (human)) [%] | kinase still bound, per cent of control (BMPR2 (human)) [%] | kinase still bound, per cent of control (CDK3 (human)) [%] | kinase still bound, per cent of control (CLK1 (human)) [%] | kinase still bound, per cent of control (CSNK1A1L (human)) [%] | kinase still bound, per cent of control (DAPK2 (human)) [%] | kinase still bound, per cent of control (DCLK3 (human)) [%] | kinase still bound, per cent of control (EPHA8 (human)) [%] | kinase still bound, per cent of control (EPHB2 (human)) [%] | kinase still bound, per cent of control (FGFR3 (human)) [%] | kinase still bound, per cent of control (MAP3K12 (human)) [%] | kinase still bound, per cent of control (MAPK10 (human)) [%] | kinase still bound, per cent of control (MST4 (human)) [%] | kinase still bound, per cent of control (NEK9 (human)) [%] | kinase still bound, per cent of control (PAK4 (human)) [%] | kinase still bound, per cent of control (PIP4K2B (human)) [%] | kinase still bound, per cent of control (PIP5K1A (human)) [%] | kinase still bound, per cent of control (PLK3 (human)) [%] | kinase still bound, per cent of control (PRKAA1 (human)) [%] | also measured |
| --- | --- | --- | --- | --- | --- | --- | --- | --- | --- | --- | --- | --- | --- | --- | --- | --- | --- | --- | --- | --- | --- |
| CCN(CC)CCCCNc1ncc2cc(-c3cc(OC)cc(OC)c3)c(NC(=O)NC(C)(C)C)nc2n1 | 100 | 100 | 100 | 100 | 100 | 100 | 100 | 100 | 100 | 100 | 0.05 | 100 | 100 | 100 | 100 | 100 | 100 | 100 | 100 | 100 | kinase still bound, per cent of control (MAP4K5 (human)): 100%; kinase still bound, per cent of control (MAPK12 (human)): 100%; kinase still bound, per cent of control (PRKD1 (human)): 100%; kinase still bound, per cent of control (PRKD2 (human)): 100%; kinase still bound, per cent of control (RIPK2 (human)): 100%; kinase still bound, per cent of control (RPS6KA3 KD1 (human)): 100%; kinase still bound, per cent of control (STK16 (human)): 100%; kinase still bound, per cent of control (TESK1 (human)): 100%; kinase still bound, per cent of control [1]: 100% |
| Cc1n[nH]c2ccc(-c3cncc(OC[C@@H](N)Cc4c[nH]c5ccccc45)c3)cc12 | 100 | 100 | 100 | 22 | 0 | 11 | 1.3 | 2 | 100 | 100 | 100 | 100 | 25 | 30 | 100 | 13 | 5.4 | 9.4 | 100 | 100 | kinase still bound, per cent of control (PRKD1 (human)): 2%; kinase still bound, per cent of control (PRKD2 (human)): 0%; kinase still bound, per cent of control (RIPK2 (human)): 100%; kinase still bound, per cent of control (SGK110 (human)): 100%; kinase still bound, per cent of control (STK16 (human)): 100%; kinase still bound, per cent of control (TESK1 (human)): 100%; kinase still bound, per cent of control [1]: 100% |
| CNC(=O)c1ccc(Nc2cc(Nc3ccccc3S(=O)(=O)C(C)C)c3cc[nH]c3n2)nc1 | 100 | 1.8 | 7.9 | 100 | 0.15 | 26 | 100 | 2.8 | 100 | 100 | 18 | 0.4 | 17 | 19 | 100 | 18 | 3.8 | 4.6 | 100 | 4.6 | kinase still bound, per cent of control (MAP4K5 (human)): 1.8%; kinase still bound, per cent of control (MAPK12 (human)): 100%; kinase still bound, per cent of control (PRKD1 (human)): 100%; kinase still bound, per cent of control (PRKD2 (human)): 100%; kinase still bound, per cent of control (RIPK2 (human)): 100%; kinase still bound, per cent of control (RPS6KA3 KD1 (human)): 25%; kinase still bound, per cent of control (SGK110 (human)): 7.4%; kinase still bound, per cent of control (STK16 (human)): 2.8%; kinase still bound, per cent of control (TESK1 (human)): 30%; kinase still bound, per cent of control [1]: 0.25% |
| C=CC(=O)Nc1ccc(CN(C(=O)Nc2c(Cl)c(OC)cc(OC)c2Cl)c2cc(Nc3ccc(N4CCN(C)CC4)cc3)ncn2)cc1 | 100 | 100 | 8.9 | 100 | 100 | 100 | 100 | 100 | 100 | 100 | 4.5 | 100 | 100 | 100 | 100 | 100 | 100 | 100 | 100 | 100 | kinase still bound, per cent of control (MAP4K5 (human)): 2.3%; kinase still bound, per cent of control (MAPK12 (human)): 100%; kinase still bound, per cent of control (PRKD1 (human)): 100%; kinase still bound, per cent of control (PRKD2 (human)): 100%; kinase still bound, per cent of control (RIPK2 (human)): 100%; kinase still bound, per cent of control (RPS6KA3 KD1 (human)): 100%; kinase still bound, per cent of control (SGK110 (human)): 100%; kinase still bound, per cent of control (STK16 (human)): 100%; kinase still bound, per cent of control (TESK1 (human)): 100%; kinase still bound, per cent of control [1]: 12% |
